From patent publication EP0897904B1, “Fungicidal 2-methoxybenzophenones” (BASF AKTIENGESELLSCHAFT, priority 1997, dated 1999)
Like-named read-outs stand apart in the source and are kept apart here.

Columns and labels:
Assay type in all cases: in vivo
[1] = test system: Blumeria (Erysiphe) graminis DC. f.sp. tritici E. Marchal; test: Curative and residual control test, Wheat Powdery Mildew (WPM); conditions: read-out: Disease control (% efficacy)
From the text: • (a) Wheat Powdery Mildew (WPM): HOST: Wheat (Triticum aestivum L.) variety Kanzler PATHOGEN: Blumeria (Erysiphe) graminis DC. f.sp. tritici E. Marchal • (b) Cucumber Powdery Mildew (QPM): HOST: Cucumber (Cucumis sativus L.) variety Bush pickle PATHOGEN: Erysiphe cichoracearum DC
This test procedure is for curative and residual control of powdery mildew diseases. • 1. Wheat seed (approximately 8-10/pot) or cucumber seed (1 seed / pot) is planted in 6 cm diameter plastic pots and maintained in the greenhouse. • 2. When the primary leaf (wheat) or the cotyledons (cucumber) is/are fully expanded, formulated test compounds are sprayed with a single nozzle overhead track sprayer at a rate of 200 l/ha. Plants are then allowed to air-dry. • 3. Inoculation precedes treatment by 2 or 3 days in the case of curative evaluations and follows treatment by 3 or 4 days in case of residual evaluations. For inoculation, plants are set up on greenhouse benches with bottom watering mats and inoculated by dusting them with conidia from powdery mildew infected plants (stock cultures at an age of 10-14 days). Between inoculation and treatment for curative evaluations and between treatment and inoculation for residual evaluations, plants are maintained in the greenhouse with bottom watering. • 4. Disease on the primary leaf (wheat) or on the cotyledons (cucumber) as percent leaf area with disease symptoms/signs is evaluated about 7 days after inoculation. In the case of wheat, the tips and bases of the leaves are excluded from the evaluation. Percent disease control is then calculated by the following formula: % disease control = 100 -(% infection in treated plants)/(% infection in untreated plants)x 100 [formula]
(§1) • 1. Technical compounds are formulated in a solvent/surfactant system consisting of 5% acetone and 0.05% Tween 20 in deionized water. Compounds are dissolved in acetone prior to addition of the water; the Tween 20 can be added through either the acetone or the water. Dilutions are made using the solvent/surfactant system. Formulated compounds are prepared using deionized water. • 2. Two kinds of controls are included: • Plants treated with the solvent/surfactant solution and inoculated (Solvent Blank). • Untreated plants which are inoculated (Inoculated Control).

[2] = test system: Blumeria (Erysiphe) graminis DC. f.sp. tritici E. Marchal; test: Foliar systemicity test, wheat powdery mildew (band application on leaf); conditions: typically 400 ppm
From the text: Wheat Powdery Mildew (WPM): HOST: Wheat (Triticum aestivum L.) variety Kanzler PATHOGEN: Blumeria (Erysiphe) graminis DC. f.sp. tritici E. Marchal
• 1. Wheat seed (8/pot) is planted in 8 cm diameter plastic pots in the greenhouse. • 2. When the primary leaf is fully expanded, the plants are cut back to four in each pot of which two are marked with a permanent marker 5 cm below the leaf tip on the upper leaf surface. Thus there are two band-treated and two untreated plants in each pot. • 3. A pipette is used to apply 5 µl of the formulated compound in a band on the lower leaf surface opposite the mark. The application band should cover the whole leaf width. After application, the plants are not moved until the bands are dry (half an hour or so later). • 4. After treated plants have dried, they are moved to the greenhouse and kept there for 2 days to allow for movement of the compounds. The plants are maintained with bottom watering. • 5. Two days after application, the plants are inoculated by dusting them with powdery mildew conidia in the greenhouse. Evaluations are typically made 7 - 8 days after inoculation.
Three types of compound movement are assessed by evaluating disease in three areas of each band-treated leaf. Translaminar movement: The percent disease area is assessed for the translaminar band area (marked area of the upper leaf surface directly opposite where band was applied on the lower leaf surface; width of band approximately 5 mm). Translaminar disease control is then calculated using the following formula: % disease control = 100 -(% disease in treated plants)/(% disease in untreated plants)x 100 [formula]
Distal movement and proximal movement: The distal and proximal disease-free zones on the upper leaf surface are measured in mm. The distal direction is from the band toward the leaf apex and the proximal direction is from the band toward the leaf base. The percent of the disease-free zone relative to the entire distance between the band and leaf apex or base is calculated. If disease is noticeably lighter in the distal or proximal area this is also noted.
• 1. […]

[3] = test system: Blumeria (Erysiphe) graminis DC. f.sp. hordei E. Marchal; test: Zero day protectant test, Barley Powdery Mildew (BPM); conditions: barley variety Golden Promise, 0 day protectant test, side-by-side, technical material in 0.5% acetone 0.05% Tween 20 water
From the text: • (a) Wheat Powdery Mildew (WPM): HOST: Wheat (Triticum aestivum L.) variety Kanzler PATHOGEN: Blumeria (Erysiphe) graminis DC. f.sp. tritici E. Marchal • (b) Barley Powdery Mildew (BPM): HOST: Barley (Hordeum vulgare L.) variety Golden Promise PATHOGEN: Blumeria (Erysiphe) graminis DC. f.sp. hordei E. Marchal
This test is a zero day protectant test for control of wheat and barley powdery mildews. • 1. Wheat or barley seed (approximately 8-10/pot) is planted in 6 cm diameter plastic pots and maintained in the greenhouse. • 2. When the primary leaf is fully expanded, formulated test compounds are sprayed with a single nozzle overhead track sprayer at a rate of 200 l/ha. Plants are then allowed to air-dry. • 3. Inoculation follows about three hours after compound application. Plants are set up on greenhouse benches with bottom watering mats and inoculated by dusting them with conidia from powdery mildew infected plants (stock cultures at an age of 10-14 days). • 4. Disease on the primary leaf as percent leaf area with disease symptoms/signs is evaluated about 7 days after inoculation. The tips and bases of the leaves are excluded from the evaluation. Percent disease control is then calculated by the following formula: % disease control = 100 -(% infection in treated plants)/(% infection in untreated plants)x 100 [formula]
as §1, with “system. Test compounds are typically tested over a range of concentrations covering several orders of magnitude and then ED values are calculated for comparison of compounds.” for “system.”
Compounds applied as technical material formulated in 0.5% acetone 0.05% Tween 20 water

Compound: COc1cc(C)c(C(=O)c2c(C)cccc2OC)c(OC)c1OC [Example 1, 6,6'-dimethyl-2,2',3',4'-tetramethoxy-benzophenone]
- percent disease control at 12.5 ppm ([1]; 48 h, WPM 2 da C (2 day curative), 12,5 ppm, Test A): 69%
- Emax at 12.5 ppm ([1]; 48 h, WPM 2 da C (2 day curative), 12,5 ppm, Test B): 52%
- percent disease control at 125 ppm ([1]; 48 h, WPM 2 da C (2 day curative), 125 ppm, Test A): 79%
- Emax at 125 ppm ([1]; 48 h, WPM 2 da C (2 day curative), 125 ppm, Test B): 65%
- percent disease control at 1250 ppm ([1]; 48 h, WPM 2 da C (2 day curative), 1250 ppm, Test A): 88%
- Emax at 1250 ppm ([1]; 48 h, WPM 2 da C (2 day curative), 1250 ppm, Test B): 85%
- percent disease control at 12.5 ppm ([1]; 72 h, WPM 3 da R (3 day residual), 12,5 ppm, Test A): 90%
- Emax at 12.5 ppm ([1]; 72 h, WPM 3 da R (3 day residual), 12,5 ppm, Test B): 100%
- percent disease control at 125 ppm ([1]; 72 h, WPM 3 da R (3 day residual), 125 ppm, Test A): 100%
- percent disease control at 125 ppm ([1]; 72 h, WPM 3 da R (3 day residual), 125 ppm, Test B): 100%
- percent disease control at 1250 ppm ([1]; 72 h, WPM 3 da R (3 day residual), 1250 ppm, Test A): 100%
- percent disease control at 1250 ppm ([1]; 72 h, WPM 3 da R (3 day residual), 1250 ppm, Test B): 100%
- Translaminar Activity ( % ) ([2]; % disease control in translaminar band area, wheat variety Kanzler): 100%
- Distal Movement (mm from band) ([2]; disease-free zone on wheat leaf (variety Kanzler) from band toward leaf apex, 5 µl band, inoculated 2 days after application): 50 mm
- Proximal Movement (mm from band) ([2]; disease-free zone on wheat leaf (variety Kanzler) from band toward leaf base, 5 µl band, inoculated 2 days after application): 10 mm
- ED90 (ppm) [3]: 6 ppm
